Experimental data taken from ChEMBL document CHEMBL3045966, “Synthesis and Selective Bioactivity of New Pyrazolecarboxamide Derivatives” (J Pestic Sci, 1999).

Columns and labels:
Tetranychus urticae [1] = assay: Acaricidal activity against Tetranychus urticae (two-spotted spider mite) reared on kidney bean leaves followed by compound exposure through leaf dipping assessed as mite mortality at 30 ppm measured after 3 days; format: functional; settings: foliar, 72 h
[2] = Toxicity against Oryzias latipes (Japanese medaka) assessed as fish mortality at 0.5 ppm measured after 3 days; format: organism-based; settings: in vivo
Tetranychus urticae [3] = assay: Acaricidal activity against Tetranychus urticae (two-spotted spider mite) reared on kidney bean leaves followed by compound exposure through leaf dipping assessed as mite mortality at 10 ppm measured after 3 days; format: functional; settings: foliar, 72 h
Tetranychus urticae [4] = assay: Acaricidal activity against Tetranychus urticae (two-spotted spider mite) reared on kidney bean leaves followed by compound exposure through leaf dipping assessed as mite mortality at 3 ppm measured after 3 days; format: functional; settings: foliar, 72 h
[5] = Toxicity against Oryzias latipes (Japanese medaka) assessed as fish mortality at 0.05 ppm measured after 3 days; format: organism-based; settings: in vivo
Tetranychus urticae [6] = assay: Acaricidal activity against Tetranychus urticae (two-spotted spider mite) reared on kidney bean leaves followed by compound exposure through leaf dipping assessed as mite mortality at 300 ppm measured after 3 days; format: functional; settings: foliar, 72 h

SMILES | mortality at 30 ppm (Tetranychus urticae [1]) | mortality at 72 h, 0.5 ppm [2] | mortality at 10 ppm (Tetranychus urticae [3]) | mortality at 3 ppm (Tetranychus urticae [4]) | mortality at 72 h, 0.05 ppm [5] | mortality at 300 ppm (Tetranychus urticae [6])
CCOCCc1ccc(OCCNC(=O)c2cc(C)nn2C)c(C)c1 | 0% | 0% | 0% | 0% | 0% | 30%
CCOCCc1ccc(OCCN(C(C)=O)C(=O)c2cc(C3CC3)nn2C)c(C)c1 | 0% | 51% | – | – | 0% | 100%
CCCCCC(=O)N(CCOc1ccc(CCOCC)cc1C)C(=O)c1c(Cl)c(C)nn1C | 100% | 100% | 80% | 30% | 1% | 100%
CCOCCc1ccc(OCCN(C(=O)c2cc(C(C)(C)C)nn2C)C(=O)C(C)C)c(C)c1 | 100% | 0% | 100% | 0% | 0% | 100%
CCCc1nn(C)c(C(=O)N(CCOc2ccc(CCOCC)cc2C)C(C)=O)c1Cl | 0% | 100% | – | – | 0% | 0%
CCOCCc1ccc(OCCNC(=O)c2c(Cl)c(C)nn2C)c(C)c1 | 100% | 100% | 100% | 0% | 100% | 100%
CCOCCc1ccc(OCCN(C(C)=O)C(=O)c2cc(C(C)C)nn2C)c(C)c1 | 100% | 100% | 30% | 0% | 0% | 100%
CCOCCc1ccc(OCCNC(=O)c2c(Cl)c(CC)nn2C)c(C)c1 | 100% | 100% | 100% | 0% | 100% | 100%
CCOCCc1ccc(OCCNC(=O)c2cc(C(C)(C)C)nn2C)c(C)c1 | 30% | 100% | 0% | 0% | 1% | 100%
CCCCCCCCCCC(=O)N(CCOc1ccc(CCOCC)cc1C)C(=O)c1c(Cl)c(C)nn1C | 100% | 51% | 0% | 0% | 0% | 100%
CCOCCc1ccc(OCCN(C(C)=O)C(=O)c2cc(C)nn2C)c(C)c1 | 100% | 1% | 0% | 0% | 0% | 100%
CCOCCc1ccc(OCCN(C(=O)CC)C(=O)c2cc(C(C)(C)C)nn2C)c(C)c1 | 100% | 1% | 0% | 0% | 0% | 100%
CCCC(=O)N(CCOc1ccc(CCOCC)cc1C)C(=O)c1c(Cl)c(C)cn1C | 100% | 100% | 30% | 0% | 0% | 100%
CCOCCc1ccc(OCCN(C(C)=O)C(=O)c2c(Cl)cnn2C)c(C)c1 | 0% | 0% | – | – | 0% | 0%
CCOCCc1ccc(OCCN(C(C)=O)C(=O)c2c(Cl)c(C)nn2C)c(C)c1 | 100% | 100% | 80% | 30% | 1% | 100%
CCCc1cc(C(=O)N(CCOc2ccc(CCOCC)cc2C)C(C)=O)n(C)n1 | 30% | 51% | 0% | 0% | 0% | 100%
CCOCCc1ccc(OCCN(C(C)=O)C(=O)c2cc(CC)nn2C)c(C)c1 | 100% | 100% | 0% | 0% | 0% | 100%
CCOCCc1ccc(OCCN(C(C)=O)C(=O)c2c(Cl)c(CC)nn2C)c(C)c1 | 100% | 100% | 30% | 0% | 51% | 100%
CCOCCc1ccc(OCCN(C(=O)c2cc(C(C)(C)C)nn2C)C(=O)C2CC2)c(C)c1 | 100% | 0% | 30% | 0% | 0% | 100%
CCOCCc1ccc(OCCNC(=O)c2cc(CC)nn2C)c(C)c1 | 30% | 100% | 0% | 0% | 51% | 100%
CCOCCc1ccc(OCCN(C(C)=O)C(=O)c2cc(C(C)(C)C)nn2C)c(C)c1 | 100% | 1% | 80% | 0% | 0% | 100%
CCOCCc1ccc(OCCN(C(=O)c2ccccc2)C(=O)c2cc(C(C)(C)C)nn2C)c(C)c1 | 100% | 0% | 0% | 0% | 0% | 100%
CCOCCc1ccc(OCCN(C(C)=O)C(=O)c2c(Cl)c(C(C)(C)C)nn2C)c(C)c1 | 0% | 0% | – | – | 0% | 80%
CCOCCc1ccc(OCCN(C(=O)CC)C(=O)c2c(Cl)c(C)nn2C)c(C)c1 | 100% | 100% | 100% | 0% | 0% | 100%
CCCc1cc(C(=O)NCCOc2ccc(CCOCC)cc2C)n(C)n1 | 0% | 100% | 0% | 0% | 1% | 0%
CCOCCc1ccc(OCCNC(=O)c2c(Cl)c(C(C)(C)C)nn2C)c(C)c1 | 30% | 0% | 30% | 0% | 0% | 30%
